Literature values, collected in patent US9403744B2, “Process for the production of alkyl ethers by the etherification of isobutene” (SAIPEM S.p.A., priority 2006, dated 2016).

Details: in water

| SMILES | Solubility in H2O [w %] |
| --- | --- |
| CCOC(C)(C)C [ETBE, ethyl ter-butyl ether] | 1.2 |
| CCC(C)(C)OC [TAME, methyl ter-amyl ether] | 1.1 |
